Earlier results as cited in patent US20260337190A1, “CRYSTAL FORM OF PYRIDINOPYRIMIDINONE COMPOUND, ACID SALT THEREOF, CRYSTAL FORM OF ACID SALT THEREOF, AND USE” (Wuhan Humanwell Innovative Drug Research and Development …, priority 2022, published 2026).

Tested on: mutated KRAS and wild-type KRAS in tumor cells
Details: cited from earlier work

## CNCc1ccccc1-c1csc([C@@H](C)Nc2nc(C)nc3cc(OC)c(OC)cc23)c1 [BAY-293]
  reduction of activity of mutated and wild-type KRAS in tumor cells: can effectively reduce the activity of mutated KRAS and wild-type KRAS in tumor cells
